For the assay, the target named is β-amyloid (also known as βA4) peptide (Homo sapiens, UniProt P05067). The assay can be described thus: Bradford dye (Coomassie Brilliant Blue G-250) assay of β-amyloid peptide aggregation, absorbance at 595 nm. Type of assay: biochemical. The settings on record: for inhibition at 500 µM: 500 µM compound; for inhibition at 1000 µM: 1 mM (or 1000 µM) compound. Here is the method: β-amyloid (also known as βA4) peptide was dissolved in 100% dimethylsulfoxide (DMSO) at 10 mg/mL (or 2500 µM) concentration. The resultant solution was diluted to 1 mg/ml (or 250 µM) stock in Phosphate Buffered Saline (PBS), pH 7.4, just prior to setting up the assay and dispensed in individual sample wells of a Corning 96-well plate at 16µL per well (i.e. a final concentration of 25 µM). All treatments were done in triplicate.
β-amyloid (also known as βA4) peptide, sequence (P05067 672-713 limits assumed): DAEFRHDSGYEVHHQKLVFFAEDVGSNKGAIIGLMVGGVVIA
In this example, the candidate compound was added to the test wells at three different concentrations (250µM, 500µM and 1mM). Total volume in each well was brought up to 160µL with PBS. For untreated control wells, no compound was added to the β-amyloid peptide, and the total volume was made to 160µL with PBS. The plates were sealed with parafilm and incubated at 37°C for 48 hours.
At the end of the incubation period, the plates were taken out and 25µL of Bio-Rad protein assay dye reagent (Bradford dye) was added to all the wells with samples. A standard curve was also set up at this time for estimation of fresh (also considered as unaggregared) peptide absorbance. The dye was mixed by pipeting and the plates quickly spun at 2500 rpm to remove bubbles.
The absorbance was read at 595 nm in a Dynatech MR5000 plate reader 15 minutes after adding the dye. The percent decrease in aggregation of β-amyloid due to the addition of candidate compound A41920t which is a 8-mer peptide of sequence Glutamine-Lysine-Leucine-Valine-Threonine-Threonine-Alanine-Glutamate ([…]) was calculated from the difference between untreated aggregated peptide and the treated aggregated peptide.
The procedure of Example 1 was repeated except that hydrogen peroxide (10µL of 30% stock) was added to the wells in a 96-well plate with 16µL of the 1 mg/mL β-amyloid stock. The final volume was then brought up to 160µL by adding 134µL of PBS to these wells. The plate was sealed and incubated at 37°C for 48 hours.
At the end of the incubation period, the plates were taken out and 25µL of Bio-Rad protein assay dye reagent (Bradford dye) was added to all the wells with samples as in Example 1. A standard curve was again used for estimation of fresh (also considered as unaggregated) peptide absorbance. The dye was mixed by pipeting and the plates quickly spun at 2500 rpm to remove bubbles.
The absorbance was read at 595nm in the Dynatech MR5000 plate reader 15 minutes after adding the dye. The amount of aggregation was estimated by subtracting background and taking the difference between the fresh and hydrogen peroxide treated β-amyloid readings. The difference was expressed as percent over fresh or unaggregated peptide.

The mark [1] stands for this setting: 25 µM β-amyloid, PBS pH 7.4, 37°C, 48 hours, read-out: percent decrease in aggregation of β-amyloid.

Residues, ends and D or L forms follow the SMILES beside them.

On to `CC(C)CC(NC(=O)C(CCCCN)NC(=O)C(N)CCC(N)=O)C(=O)NC(C(=O)NC(C(=O)NC(C(=O)NC(C)C(=O)NC(CCC(=O)O)C(=O)O)C(C)O)C(C)O)C(C)C` (stereo not drawn) [A41920t, Glutamine-Lysine-Leucine-Valine-Threonine-Threonine-Alanine-Glutamate (QKLVTTAE)] (H-QKLVTTAE-OH; configuration not given here), for which the inhibition at 250 µM (250 µM compound, 25 µM β-amyloid, PBS pH 7.4, 37°C, 48 hours, read-out: percent decrease in aggregation of β-amyloid) worked out at 48.1%. For the same molecule, under setting [1], the inhibition at 500 µM was 52.4% and the inhibition at 1000 µM is 32.3%.
`OO` [hydrogen peroxide] had a percentage of aggregation (10µL of 30% stock in 160µL, 37°C, after 48 hrs, percent over fresh or unaggregated peptide) of 97.7%.
Turning to `CCCn1cnc2c1c(=O)n(CCCCC(C)=O)c(=O)n2C` [propentofylline, 1-(5'-oxohexyl)-3-methyl-7-propyl-2,6-(1H,3H)-purinedione], under setting [1], the inhibition at 500 µM turned out to be 29.7% and the inhibition at 1000 µM was 37.4%.

(Values after EP0846269B1, “A METHOD OF DETERMINING THE DEGREE OF AGGREGATION OF THE BETA A4 PEPTIDE” (Aventis Pharmaceuticals Inc., priority 1995, dated 1997).)
